# Experimental data published in PubChem BioAssay AID248 (DTP/NCI, 2004).
# Where “and” joins values, the source holds several entries; their conditions need not be identical. Equal values may be shown once. Toxic doses and inconclusive results are not listed.
# System: L1210 leukemia ip in BDF1 mice, survival T/C
# Assay: NCI In Vivo Anticancer Drug Screen. Data for tumor model L1210 Leukemia (intraperitoneal) in B6D2F1 (BDF1) mice
# Conditions: higher = longer survival
# Procedure, shortened: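 Each compound was tested against a transplantable tumor grown in mice. The endpoint was survival, with treated animals benchmarked against vehicle controls as a simple ratio.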
smiles,measurement,setting,value
NC(C/[N+]([O-])=N/O)C(=O)O (stereo not given),T/C,"endpoint: mean survival time, dose: 6.25 mg/kg/injection, schedule: Q01DX009 (ip), vehicle: saline",117 % of control and 118 % of control
same,T/C,"endpoint: mean survival time, dose: 8.0 mg/kg/injection, schedule: Q03HX016 (ip), vehicle: saline",111 % of control
same,T/C,"endpoint: mean survival time, dose: 8.0 mg/kg/injection, schedule: Q03HX024 (ip), vehicle: saline",113 % of control
same,T/C,"endpoint: mean survival time, dose: 12.5 mg/kg/injection, schedule: Q01DX009 (ip), vehicle: saline",117 % of control and 122 % of control and 123 % of control
same,T/C,"endpoint: mean survival time, dose: 16.0 mg/kg/injection, schedule: Q03HX008 (ip), vehicle: saline",111 % of control
same,T/C,"endpoint: mean survival time, dose: 16.0 mg/kg/injection, schedule: Q03HX016 (ip), vehicle: saline",116 % of control
same,T/C,"endpoint: mean survival time, dose: 16.0 mg/kg/injection, schedule: Q03HX024 (ip), vehicle: saline",118 % of control
same,T/C,"endpoint: mean survival time, dose: 20.0 mg/kg/injection, schedule: Q01DX009 (ip), vehicle: saline",118 % of control
same,T/C,"endpoint: mean survival time, dose: 25.0 mg/kg/injection, schedule: Q01DX001 (ip), vehicle: carboxymethylcellulose (CMC)",112 % of control
same,T/C,"endpoint: mean survival time, dose: 25.0 mg/kg/injection, schedule: Q01DX009 (ip), vehicle: saline",120 % of control and 123 % of control
same,T/C,"endpoint: mean survival time, dose: 30.0 mg/kg/injection, schedule: Q01DX009 (ip), vehicle: saline with Tween-80",111 % of control
same,T/C,"endpoint: mean survival time, dose: 32.0 mg/kg/injection, schedule: Q01DX009 (ip), vehicle: saline",116 % of control
same,T/C,"endpoint: mean survival time, dose: 32.0 mg/kg/injection, schedule: Q01DX009 (sc), vehicle: saline",117 % of control
same,T/C,"endpoint: mean survival time, dose: 32.0 mg/kg/injection, schedule: Q03HX008 (ip), vehicle: saline",116 % of control
same,T/C,"endpoint: mean survival time, dose: 32.0 mg/kg/injection, schedule: Q03HX024 (ip), vehicle: saline",121 % of control
same,T/C,"endpoint: mean survival time, dose: 40.0 mg/kg/injection, schedule: Q01DX009 (ip), vehicle: saline",121 % of control
same,T/C,"endpoint: mean survival time, dose: 44.0 mg/kg/injection, schedule: Q01DX009 (ip), vehicle: saline with Tween-80",108 % of control
same,T/C,"endpoint: mean survival time, dose: 50.0 mg/kg/injection, schedule: Q01DX001 (ip), vehicle: carboxymethylcellulose (CMC)",106 % of control
same,T/C,"endpoint: mean survival time, dose: 54.0 mg/kg/injection, schedule: Q04DX003 (ip), vehicle: saline with Tween-80",110 % of control
same,T/C,"endpoint: mean survival time, dose: 64.0 mg/kg/injection, schedule: Q01DX001 (oral), vehicle: saline",107 % of control
same,T/C,"endpoint: mean survival time, dose: 64.0 mg/kg/injection, schedule: Q01DX009 (ip), vehicle: saline",123 % of control
same,T/C,"endpoint: mean survival time, dose: 64.0 mg/kg/injection, schedule: Q01DX009 (oral), vehicle: saline",92 % of control
same,T/C,"endpoint: mean survival time, dose: 64.0 mg/kg/injection, schedule: Q01DX009 (sc), vehicle: saline",118 % of control
same,T/C,"endpoint: mean survival time, dose: 64.0 mg/kg/injection, schedule: Q03HX008 (ip), vehicle: saline",116 % of control
same,T/C,"endpoint: mean survival time, dose: 64.0 mg/kg/injection, schedule: Q03HX024 (ip), vehicle: saline",122 % of control
same,T/C,"endpoint: mean survival time, dose: 64.0 mg/kg/injection, schedule: Q04DX003 (ip), vehicle: saline",117 % of control
same,T/C,"endpoint: mean survival time, dose: 64.0 mg/kg/injection, schedule: Q08DX002 (ip), vehicle: saline",117 % of control
same,T/C,"endpoint: mean survival time, dose: 67.0 mg/kg/injection, schedule: Q01DX009 (ip), vehicle: saline with Tween-80",104 % of control
same,T/C,"endpoint: mean survival time, dose: 100.0 mg/kg/injection, schedule: Q01DX001 (ip), vehicle: carboxymethylcellulose (CMC)",110 % of control
same,T/C,"endpoint: mean survival time, dose: 100.0 mg/kg/injection, schedule: Q04DX003 (ip), vehicle: saline with Tween-80",123 % of control
same,T/C,"endpoint: mean survival time, dose: 128.0 mg/kg/injection, schedule: Q01DX001 (ip), vehicle: saline",118 % of control
same,T/C,"endpoint: mean survival time, dose: 128.0 mg/kg/injection, schedule: Q01DX001 (oral), vehicle: saline",103 % of control
same,T/C,"endpoint: mean survival time, dose: 128.0 mg/kg/injection, schedule: Q01DX001 (sc), vehicle: saline",104 % of control
same,T/C,"endpoint: mean survival time, dose: 128.0 mg/kg/injection, schedule: Q01DX009 (ip), vehicle: saline",108 % of control
same,T/C,"endpoint: mean survival time, dose: 128.0 mg/kg/injection, schedule: Q01DX009 (sc), vehicle: saline",102 % of control
same,T/C,"endpoint: mean survival time, dose: 128.0 mg/kg/injection, schedule: Q03HX008 (ip), vehicle: saline",119 % of control
same,T/C,"endpoint: mean survival time, dose: 128.0 mg/kg/injection, schedule: Q03HX016 (ip), vehicle: saline",122 % of control
same,T/C,"endpoint: mean survival time, dose: 128.0 mg/kg/injection, schedule: Q04DX003 (ip), vehicle: saline",114 % of control
same,T/C,"endpoint: mean survival time, dose: 128.0 mg/kg/injection, schedule: Q08DX002 (ip), vehicle: saline",112 % of control
same,T/C,"endpoint: mean survival time, dose: 150.0 mg/kg/injection, schedule: Q01DX009 (ip), vehicle: saline with Tween-80",92 % of control
same,T/C,"endpoint: mean survival time, dose: 160.0 mg/kg/injection, schedule: Q01DX009 (ip), vehicle: saline",116 % of control
same,T/C,"endpoint: mean survival time, dose: 187.0 mg/kg/injection, schedule: Q04DX003 (ip), vehicle: saline with Tween-80",156 % of control
same,T/C,"endpoint: mean survival time, dose: 200.0 mg/kg/injection, schedule: Q01DX001 (ip), vehicle: carboxymethylcellulose (CMC)",124 % of control
same,T/C,"endpoint: mean survival time, dose: 200.0 mg/kg/injection, schedule: Q01DX003 (ip), vehicle: sodium bicarbonate",164 % of control
same,T/C,"endpoint: mean survival time, dose: 200.0 mg/kg/injection, schedule: Q01DX009 (ip), vehicle: saline",102 % of control
same,T/C,"endpoint: mean survival time, dose: 256.0 mg/kg/injection, schedule: Q01DX001 (ip), vehicle: saline",117 % of control
same,T/C,"endpoint: mean survival time, dose: 256.0 mg/kg/injection, schedule: Q01DX001 (oral), vehicle: saline",103 % of control
same,T/C,"endpoint: mean survival time, dose: 256.0 mg/kg/injection, schedule: Q01DX001 (sc), vehicle: saline",108 % of control
same,T/C,"endpoint: mean survival time, dose: 256.0 mg/kg/injection, schedule: Q01DX009 (ip), vehicle: saline",95 % of control
same,T/C,"endpoint: mean survival time, dose: 256.0 mg/kg/injection, schedule: Q08DX002 (ip), vehicle: saline",121 % of control
same,T/C,"endpoint: mean survival time, dose: 266.0 mg/kg/injection, schedule: Q04DX003 (ip), vehicle: saline with Tween-80",115 % of control
same,T/C,"endpoint: mean survival time, dose: 400.0 mg/kg/injection, schedule: Q01DX003 (ip), vehicle: sodium bicarbonate",172 % of control
same,T/C,"endpoint: mean survival time, dose: 400.0 mg/kg/injection, schedule: Q04DX003 (ip), vehicle: Klucel (hydroxypropylcellulose) (HPC)",151 % of control
same,T/C,"endpoint: mean survival time, dose: 512.0 mg/kg/injection, schedule: Q01DX001 (ip), vehicle: saline",117 % of control
same,T/C,"endpoint: mean survival time, dose: 512.0 mg/kg/injection, schedule: Q01DX001 (oral), vehicle: saline",97 % of control
same,T/C,"endpoint: mean survival time, dose: 512.0 mg/kg/injection, schedule: Q01DX001 (sc), vehicle: saline",106 % of control
same,T/C,"endpoint: mean survival time, dose: 600.0 mg/kg/injection, schedule: Q01DX003 (ip), vehicle: sodium bicarbonate",172 % of control
same,T/C,"endpoint: mean survival time, dose: 600.0 mg/kg/injection, schedule: Q04DX003 (ip), vehicle: saline with Tween-80",121 % of control
same,T/C,"endpoint: mean survival time, dose: 600.0 mg/kg/injection, schedule: Q04DX003 (ip), vehicle: saline",161 % of control and 159 % of control
same,T/C,"endpoint: mean survival time, dose: 800.0 mg/kg/injection, schedule: Q01DX003 (ip), vehicle: sodium bicarbonate",175 % of control
same,T/C,"endpoint: mean survival time, dose: 800.0 mg/kg/injection, schedule: Q04DX003 (ip), vehicle: Klucel (hydroxypropylcellulose) (HPC)",106 % of control
same,T/C,"endpoint: mean survival time, dose: 800.0 mg/kg/injection, schedule: Q04DX003 (ip), vehicle: saline with Tween-80",154 % of control
same,T/C,"endpoint: mean survival time, dose: 1000.0 mg/kg/injection, schedule: Q01DX003 (ip), vehicle: sodium bicarbonate",96 % of control
same,T/C,"endpoint: mean survival time, dose: 1000.0 mg/kg/injection, schedule: Q04DX003 (ip), vehicle: saline with Tween-80",92 % of control
same,T/C,"endpoint: mean survival time, dose: 1024.0 mg/kg/injection, schedule: Q01DX001 (sc), vehicle: saline",110 % of control
same,T/C,"endpoint: mean survival time, dose: 1024.0 mg/kg/injection, schedule: Q04DX003 (ip), vehicle: saline",150 % of control
same,T/C,"endpoint: median survival time, dose: 8.0 mg/kg/injection, schedule: Q01DX009 (ip), vehicle: saline",105 % of control
same,T/C,"endpoint: median survival time, dose: 8.0 mg/kg/injection, schedule: Q01DX009 (oral), vehicle: saline",100 % of control
same,T/C,"endpoint: median survival time, dose: 8.0 mg/kg/injection, schedule: Q01DX009 (sc), vehicle: saline",105 % of control
same,T/C,"endpoint: median survival time, dose: 16.0 mg/kg/injection, schedule: Q01DX009 (oral), vehicle: saline",100 % of control
same,T/C,"endpoint: median survival time, dose: 16.0 mg/kg/injection, schedule: Q01DX009 (sc), vehicle: saline",100 % of control and 105 % of control
same,T/C,"endpoint: median survival time, dose: 32.0 mg/kg/injection, schedule: Q01DX009 (oral), vehicle: saline",111 % of control
same,T/C,"endpoint: median survival time, dose: 32.0 mg/kg/injection, schedule: Q01DX009 (sc), vehicle: saline",111 % of control
same,T/C,"endpoint: median survival time, dose: 64.0 mg/kg/injection, schedule: Q01DX009 (ip), vehicle: saline",100 % of control and 111 % of control
same,T/C,"endpoint: median survival time, dose: 64.0 mg/kg/injection, schedule: Q04DX003 (ip), vehicle: saline",105 % of control
same,T/C,"endpoint: median survival time, dose: 64.0 mg/kg/injection, schedule: Q04DX003 (oral), vehicle: saline",100 % of control
same,T/C,"endpoint: median survival time, dose: 100.0 mg/kg/injection, schedule: Q04DX003 (ip), vehicle: saline",116 % of control and 100 % of control
same,T/C,"endpoint: median survival time, dose: 128.0 mg/kg/injection, schedule: Q01DX009 (ip), vehicle: saline",100 % of control
same,T/C,"endpoint: median survival time, dose: 128.0 mg/kg/injection, schedule: Q01DX009 (sc), vehicle: saline",105 % of control
same,T/C,"endpoint: median survival time, dose: 128.0 mg/kg/injection, schedule: Q04DX003 (oral), vehicle: saline",100 % of control
same,T/C,"endpoint: median survival time, dose: 200.0 mg/kg/injection, schedule: Q04DX003 (ip), vehicle: saline",111 % of control
same,T/C,"endpoint: median survival time, dose: 400.0 mg/kg/injection, schedule: Q04DX003 (ip), vehicle: saline",116 % of control
same,T/C,"endpoint: median survival time, dose: 1000.0 mg/kg/injection, schedule: Q04DX003 (ip), vehicle: saline",155 % of control
same,T/C,"endpoint: median survival time, dose: 1024.0 mg/kg/injection, schedule: Q04DX003 (ip), vehicle: saline",111 % of control
same,T/C,"endpoint: median survival time, dose: 1024.0 mg/kg/injection, schedule: Q04DX003 (sc), vehicle: saline",94 % of control
